Source: US12214036B2, “Combination therapy comprising AXL/MER and PD-1/PD-L1 inhibitors” (Incyte Corporation, priority 2020, dated 2025)

Assays:
4T1 tumor = assay: 4T1 syngeneic tumor model; type: in vivo, BALB/c mice
Method: To test potential immunomodulatory activity of Compound 1 in vivo, antitumor efficacy studies were performed in syngeneic tumor models.
(§1) MBT-2 cells were obtained from the Japanese Collection of Research Bioresources Cell Bank and were maintained in DMEM supplemented with 10% FBS. MC38 cells were obtained from the NCI. 4T1 cells were obtained from ATCC and maintained in RPMI media supplemented with 10% FBS. For MBT-2 experiments, 5×10^5 MBT-2 cells were inoculated subcutaneously into the right hind flank of 6- to 8-week-old C3H mice or athymic nude mice (Charles River Laboratories, Wilmington, Mass.). For MC38 studies, 12-week old female C57BL/6 mice were inoculated with brei of MC38 tumors (in-vivo passage 6) into the right hind flank. For 4T1 studies, 7.5×10^5 4 T1 cells were inoculated subcutaneously into the right hind flank of 6- to 8-week-old female BALB/c mice or athymic nude mice (Charles River Laboratories). […] Mice were monitored for tumor growth and overt tolerability over the course of the experiment. […] Tumor volume was calculated using the formula (L×W^2)/2, where L and W refer to the length and width dimensions, respectively. Tumor growth inhibition (TGI) was calculated using the formula (1−(VT/VC))×100, where VT is the tumor volume of the treatment group on the last day of treatment, and VC is the tumor volume of the control group on the last day of treatment. […]

CTG-2426 tumors = assay: PDX model CTG-2426 (myxofibrosarcoma); type: in vivo; details: athymic nude mice
Excerpt: as §1
The activity of Compound 1 in sarcoma PDX models was evaluated as described in Example H for PDX models. […] Three mice per group were analyzed. […]

CC(C)C(=O)N1CCC(c2cc(-c3ccc(NC(=O)c4cn(C(C)C)c(=O)n(-c5ccccn5)c4=O)cc3)c3c(N)ncnn23)CC1 [Compound 1, N-(4-(4-Amino-7-(1-isobutyrylpiperidin-4-yl)pyrrolo[1,2-f][1,2,4]triazin-5-yl)phenyl)-1-isopropyl-2,4-dioxo-3-(pyridin-2-yl)-1,2,3,4-tetrahydropyrimidine-5-carboxamide]
antitumor efficacy (tumor volume) (4T1 tumor; 4T1 in BALB/c mice, oral BID, FIG. 7B): dose-dependent efficacy
ratio of M1-like to M2-like macrophages (4T1 tumor; 4T1 tumors, flow cytometry, FIG. 7D): increased the ratio of M1-like to M2-like macrophages in a dose-dependent manner
TGI (%) (CTG-2426 tumors): 42%
